# From ChEMBL document CHEMBL5104103 (J Med Chem, 2022)
# What was measured:
# [1] = target: T1, Tyrosine-protein kinase Tec (Homo sapiens, UniProt P42680); assay: Inhibition of TEC (unknown origin) using peptide substrate in presence of ATP by caliper electrophoresis method
# T1 sequence (P42680 whole entry): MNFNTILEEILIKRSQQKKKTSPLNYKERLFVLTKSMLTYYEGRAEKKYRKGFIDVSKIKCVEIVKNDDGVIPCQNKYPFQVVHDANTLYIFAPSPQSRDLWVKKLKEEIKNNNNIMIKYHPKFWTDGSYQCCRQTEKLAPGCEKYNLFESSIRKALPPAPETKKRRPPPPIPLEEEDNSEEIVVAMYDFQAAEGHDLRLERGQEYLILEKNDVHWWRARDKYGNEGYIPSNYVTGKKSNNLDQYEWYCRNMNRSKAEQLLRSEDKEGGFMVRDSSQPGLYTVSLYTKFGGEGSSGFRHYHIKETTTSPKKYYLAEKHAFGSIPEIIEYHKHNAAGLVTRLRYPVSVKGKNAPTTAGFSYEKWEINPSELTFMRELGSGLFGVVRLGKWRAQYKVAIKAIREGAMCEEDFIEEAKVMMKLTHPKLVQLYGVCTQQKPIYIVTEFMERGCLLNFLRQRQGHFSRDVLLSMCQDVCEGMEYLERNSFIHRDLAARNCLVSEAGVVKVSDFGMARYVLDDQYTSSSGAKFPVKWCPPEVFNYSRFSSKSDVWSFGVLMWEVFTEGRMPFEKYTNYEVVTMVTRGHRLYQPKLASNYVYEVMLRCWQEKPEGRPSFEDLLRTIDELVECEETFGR
# [2] = Clearance in human liver S9 fraction assessed as measuring per mg protein by LCMS/MS analysis; format: ADME, subcellular; details: read-out: CLH
# [3] = target: T2, Tyrosine-protein kinase ITK/TSK (Homo sapiens, UniProt Q08881); assay: Inhibition of ITK (unknown origin) using peptide substrate in presence of ATP by caliper electrophoresis method
# T2 sequence (Q08881 whole entry): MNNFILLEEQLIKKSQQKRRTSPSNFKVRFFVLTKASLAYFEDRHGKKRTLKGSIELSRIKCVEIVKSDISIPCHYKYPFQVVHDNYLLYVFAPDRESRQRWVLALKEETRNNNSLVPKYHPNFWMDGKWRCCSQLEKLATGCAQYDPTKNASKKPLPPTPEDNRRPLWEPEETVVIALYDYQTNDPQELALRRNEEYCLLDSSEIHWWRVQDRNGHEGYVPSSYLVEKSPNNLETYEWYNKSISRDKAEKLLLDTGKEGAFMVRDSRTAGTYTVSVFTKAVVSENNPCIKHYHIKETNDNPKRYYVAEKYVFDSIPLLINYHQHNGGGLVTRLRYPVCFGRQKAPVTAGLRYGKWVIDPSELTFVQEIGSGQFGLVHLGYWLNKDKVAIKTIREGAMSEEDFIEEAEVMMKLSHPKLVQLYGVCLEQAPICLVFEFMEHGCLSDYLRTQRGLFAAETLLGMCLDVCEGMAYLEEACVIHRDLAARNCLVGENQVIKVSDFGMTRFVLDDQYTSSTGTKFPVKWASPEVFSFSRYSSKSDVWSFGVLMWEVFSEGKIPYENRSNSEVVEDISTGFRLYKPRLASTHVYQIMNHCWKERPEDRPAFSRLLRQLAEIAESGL
# [4] = Solubility of compound in PBS at pH 7 by LCMS/MS analysis; format: physicochemical
# [5] = target: T3, Tyrosine-protein kinase TXK (Homo sapiens, UniProt P42681); assay: Inhibition of RLK (unknown origin) using peptide substrate in presence of ATP by caliper electrophoresis method
# T3 sequence (P42681 whole entry): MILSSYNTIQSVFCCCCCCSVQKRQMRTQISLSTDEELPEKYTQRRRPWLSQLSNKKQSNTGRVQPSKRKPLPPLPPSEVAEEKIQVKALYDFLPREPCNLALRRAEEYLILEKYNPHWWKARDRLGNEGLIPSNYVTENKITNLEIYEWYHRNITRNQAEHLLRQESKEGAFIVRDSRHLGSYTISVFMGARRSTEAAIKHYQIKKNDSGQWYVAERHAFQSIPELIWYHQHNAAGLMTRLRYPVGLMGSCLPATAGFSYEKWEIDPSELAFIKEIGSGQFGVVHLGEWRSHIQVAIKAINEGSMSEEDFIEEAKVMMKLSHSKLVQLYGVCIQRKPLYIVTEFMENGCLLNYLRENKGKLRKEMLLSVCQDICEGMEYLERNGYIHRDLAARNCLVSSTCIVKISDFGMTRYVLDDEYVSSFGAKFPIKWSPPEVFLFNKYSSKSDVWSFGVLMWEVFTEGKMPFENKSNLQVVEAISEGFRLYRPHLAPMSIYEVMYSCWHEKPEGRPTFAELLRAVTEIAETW
# [6] = target: T4, Cytoplasmic tyrosine-protein kinase BMX (Homo sapiens, UniProt P51813); assay: Inhibition of BMX (unknown origin) using peptide substrate in presence of ATP by caliper electrophoresis method
# T4 sequence (P51813 whole entry): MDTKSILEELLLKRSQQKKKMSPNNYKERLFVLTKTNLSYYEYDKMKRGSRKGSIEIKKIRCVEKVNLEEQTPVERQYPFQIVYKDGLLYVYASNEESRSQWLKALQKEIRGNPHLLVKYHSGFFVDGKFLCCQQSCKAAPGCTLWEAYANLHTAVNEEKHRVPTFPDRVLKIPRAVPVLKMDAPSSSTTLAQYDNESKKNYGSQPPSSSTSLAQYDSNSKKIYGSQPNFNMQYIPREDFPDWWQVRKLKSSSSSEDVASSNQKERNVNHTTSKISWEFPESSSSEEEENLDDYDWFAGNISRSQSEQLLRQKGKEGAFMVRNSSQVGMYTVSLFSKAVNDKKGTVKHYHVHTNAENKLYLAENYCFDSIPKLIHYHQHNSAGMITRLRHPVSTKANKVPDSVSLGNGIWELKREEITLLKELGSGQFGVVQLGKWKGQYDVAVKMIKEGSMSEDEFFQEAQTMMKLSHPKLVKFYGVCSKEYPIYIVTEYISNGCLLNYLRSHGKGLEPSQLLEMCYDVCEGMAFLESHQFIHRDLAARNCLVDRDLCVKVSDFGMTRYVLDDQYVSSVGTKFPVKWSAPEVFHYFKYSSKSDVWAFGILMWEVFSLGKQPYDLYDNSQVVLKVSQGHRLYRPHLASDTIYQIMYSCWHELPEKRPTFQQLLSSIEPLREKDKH
# [7] = target: Receptor tyrosine-protein kinase erbB-2 (Homo sapiens, UniProt P04626); assay: Inhibition of ERBB2 (unknown origin) using peptide substrate in presence of ATP by caliper electrophoresis method
# [8] = Inhibition of anti-IgM-stimulated CD20+ B cell activation in human whole blood assessed as measuring CD69 expression level pretreated for 1 hr followed by anti-IgM stimulation measured after 18 hrs by flow cytometry
# [9] = Permeability across basolateral to apical membrane in human Caco-2 cells; format: ADME, cell-based; details: read-out: permeability
# [10] = AUC in rat at 20 mg/kg, po or 2 mg/kg, iv; format: ADME, organism-based; set-up: dose 20 mg/kg, route po; details: in vivo
# Sequence of Receptor tyrosine-protein kinase erbB-2 (P04626 whole entry): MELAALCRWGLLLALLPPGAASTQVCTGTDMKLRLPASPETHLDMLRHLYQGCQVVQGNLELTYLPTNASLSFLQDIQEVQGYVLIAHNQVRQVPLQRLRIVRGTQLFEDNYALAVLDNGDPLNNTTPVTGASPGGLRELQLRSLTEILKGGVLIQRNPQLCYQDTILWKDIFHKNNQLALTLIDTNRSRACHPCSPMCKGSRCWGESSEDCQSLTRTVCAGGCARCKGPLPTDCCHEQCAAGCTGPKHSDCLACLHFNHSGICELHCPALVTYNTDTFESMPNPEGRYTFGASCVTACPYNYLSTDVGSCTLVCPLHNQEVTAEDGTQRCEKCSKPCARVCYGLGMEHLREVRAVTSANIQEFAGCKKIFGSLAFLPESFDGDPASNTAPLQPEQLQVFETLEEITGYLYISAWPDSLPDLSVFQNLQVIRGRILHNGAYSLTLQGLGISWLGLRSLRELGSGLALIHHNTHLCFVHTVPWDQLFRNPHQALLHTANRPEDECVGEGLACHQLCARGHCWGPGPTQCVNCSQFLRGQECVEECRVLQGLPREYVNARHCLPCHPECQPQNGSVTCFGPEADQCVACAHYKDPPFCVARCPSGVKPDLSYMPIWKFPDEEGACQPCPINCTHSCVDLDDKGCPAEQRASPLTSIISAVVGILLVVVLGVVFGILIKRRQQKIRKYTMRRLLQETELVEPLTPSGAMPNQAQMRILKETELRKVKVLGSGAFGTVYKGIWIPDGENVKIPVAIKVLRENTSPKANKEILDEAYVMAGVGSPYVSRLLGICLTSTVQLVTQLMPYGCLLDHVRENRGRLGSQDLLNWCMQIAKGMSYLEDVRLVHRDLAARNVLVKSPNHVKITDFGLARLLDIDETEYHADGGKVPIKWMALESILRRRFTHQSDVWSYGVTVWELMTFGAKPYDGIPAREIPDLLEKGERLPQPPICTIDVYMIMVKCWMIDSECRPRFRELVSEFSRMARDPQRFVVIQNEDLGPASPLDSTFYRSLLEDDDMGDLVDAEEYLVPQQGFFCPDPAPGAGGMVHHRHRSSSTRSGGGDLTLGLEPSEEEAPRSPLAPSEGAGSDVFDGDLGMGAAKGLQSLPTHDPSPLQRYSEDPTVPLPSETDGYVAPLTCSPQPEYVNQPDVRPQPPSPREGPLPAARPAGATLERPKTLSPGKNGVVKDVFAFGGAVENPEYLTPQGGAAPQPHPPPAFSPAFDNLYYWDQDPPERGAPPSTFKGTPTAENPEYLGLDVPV
Structure (SMILES),IC50 [1] [nM],microsomal CLint [2] [µL/min/mg],IC50 [3] [nM],solubility [4] [µM],IC50 [5] [nM],IC50 [6] [nM],IC50 [7] [µM],IC50 [8] [nM],Papp B→A [9] [×10⁻⁶ cm/s],AUC ([10]; read-out: AUC) [ng·h/mL],AUC [10] [ng·h/mL]
CN1CCN(C(C)(C)/C=C(\C#N)C(=O)N2CCC[C@@H](n3nc(-c4ccc(Oc5ccccc5)cc4F)c4c(N)ncnc43)C2)CC1,0.5,30,110,315,1.2,0.6,4.35,117,13.5,568,–
CC(C)(/C=C(/C#N)C(=O)N1CCC[C@@H]1Cn1nc(-c2ccc(Oc3ccccc3)cc2F)c2c(N)ncnc21)N1CCOCC1,4.5,152,> 5000,215,44.8,10.1,> 5,149,16.5,478,–
CC(C)(C)/C=C(\C#N)C(=O)N1CCC[C@@H](n2nc(-c3ccc(Oc4ccccc4)cc3F)c3c(N)ncnc32)C1 [ATUZABRUTINIB],1.9,77,303,2.1,3.4,1.8,1.08,216,0.6,–,1071
